“And” between values parts separate entries of the source, which are not always exact repeats. Identical values can stand only once.
Key:
CB2R-Quadruple^TM1,7 = CB2R-Quadruple^TM1,7 (Homo sapiens, UniProt P34972, C40S/K279T/K33Q/V36I); assay: [3H]CP55,940 displacement assay, CB2R quadruple mutant; format: binding; details: QuadrupleTM1,7, individual replicates
CB1R-H270^ECL2L = CB1R-H270^ECL2L (Homo sapiens, UniProt P21554, H270L); assay: [35S]GTPγS assay, CB1R H270L mutant; format: biochemical
CB2R-L182^ECL2I = CB2R-L182^ECL2I (Homo sapiens, UniProt P34972, L182I); assay: [35S]GTPγS assay, CB2R L182I mutant; format: biochemical; details: L182I mutant
CB1R QuadrupleTM1,7 = assay: [35S]GTPγS assay, CB1R quadruple mutant; format: biochemical, human
CB2R WT [1] = molecular target: T1, CB2R WT (Homo sapiens, UniProt P34972); assay: [35S]GTPγS G protein activation assay, CB2R WT; format: biochemical; details: for Emax (%): CB2R WT; for [35S]GTPγS binding, percentage of CP55,940: individual replicates
CB2R-E181^ECL2D = CB2R-E181^ECL2D (Homo sapiens, UniProt P34972, E181D); assay: [35S]GTPγS assay, CB2R E181D mutant; format: biochemical; details: E181D mutant
CB2R-I110^3.29A = CB2R-I110^3.29A (Homo sapiens, UniProt P34972, I110A); assay: [35S]GTPγS assay, CB2R I110A mutant; format: biochemical; details: for [35S]GTPγS binding: I1103.29A, individual replicates
CB1R I267ECL2L = CB1R I267ECL2L (Homo sapiens, UniProt P21554, I267L); assay: [3H]CP55,940 displacement assay, CB1R I267L mutant; format: binding
CB2R-I110^3.29L = CB2R-I110^3.29L (Homo sapiens, UniProt P34972, I110L); assay: [3H]CP55,940 displacement assay, CB2R I110L mutant; format: binding; details: for percentage specific [3H]CP55,940 binding: I1103.29L, individual replicates
CB2R WT [2] = molecular target: T1, CB2R WT; assay: [3H]CP55,940 displacement assay, CB2R WT; format: binding; details: for percentage specific [3H]CP55,940 binding: CB2R - WT, individual replicates
CB2R-H95^2.65A = CB2R-H95^2.65A (Homo sapiens, UniProt P34972, H95A); assay: [35S]GTPγS assay, CB2R H95A mutant; format: biochemical; details: H95A mutant
[3] = I110A mutant, HEK293T membranes

Chain of CB2R-H95^2.65A (P34972 whole entry H95A): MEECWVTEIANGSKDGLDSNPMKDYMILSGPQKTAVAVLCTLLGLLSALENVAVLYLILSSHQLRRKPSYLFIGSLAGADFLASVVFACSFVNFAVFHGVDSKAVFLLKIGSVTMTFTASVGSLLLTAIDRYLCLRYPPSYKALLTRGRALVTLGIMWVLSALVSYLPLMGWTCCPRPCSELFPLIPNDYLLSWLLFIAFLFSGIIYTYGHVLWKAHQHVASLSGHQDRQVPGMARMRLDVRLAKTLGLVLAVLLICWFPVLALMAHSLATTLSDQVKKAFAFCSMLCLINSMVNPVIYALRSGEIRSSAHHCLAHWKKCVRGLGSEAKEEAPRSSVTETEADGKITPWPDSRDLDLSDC
T1 sequence (P34972 whole entry): as the sequence (P34972 whole entry H95A) above, with A95H counted along it
Chain of CB1R I267ECL2L (P21554 whole entry I267L): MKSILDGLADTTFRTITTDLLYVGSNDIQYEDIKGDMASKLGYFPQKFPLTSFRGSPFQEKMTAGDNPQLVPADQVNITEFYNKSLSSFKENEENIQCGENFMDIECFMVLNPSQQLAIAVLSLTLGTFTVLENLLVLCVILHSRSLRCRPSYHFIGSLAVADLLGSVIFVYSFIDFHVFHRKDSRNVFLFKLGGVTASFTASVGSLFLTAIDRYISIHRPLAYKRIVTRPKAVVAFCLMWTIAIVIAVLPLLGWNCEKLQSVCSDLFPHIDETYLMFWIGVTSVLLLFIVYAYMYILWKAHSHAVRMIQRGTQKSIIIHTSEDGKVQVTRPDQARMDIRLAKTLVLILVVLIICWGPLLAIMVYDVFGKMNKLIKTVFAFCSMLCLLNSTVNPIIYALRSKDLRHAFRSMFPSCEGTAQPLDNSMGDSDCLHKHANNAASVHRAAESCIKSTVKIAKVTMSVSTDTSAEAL
Chain of CB2R-I110^3.29L (P34972 whole entry I110L): as the sequence (P34972 whole entry H95A) above, with A95H, I110L counted along it
Chain of CB1R-H270^ECL2L (P21554 whole entry H270L): as the sequence (P21554 whole entry I267L) above, with L267I, H270L counted along it
Chain of CB2R-Quadruple^TM1,7 (P34972 whole entry K33Q/V36I/C40S/K279T): as the sequence (P34972 whole entry H95A) above, with K33Q, V36I, C40S, A95H, K279T counted along it
Chain of CB2R-I110^3.29A (P34972 whole entry I110A): as the sequence (P34972 whole entry H95A) above, with A95H, I110A counted along it
Chain of CB2R-E181^ECL2D (P34972 whole entry E181D): as the sequence (P34972 whole entry H95A) above, with A95H, E181D counted along it
Chain of CB2R-L182^ECL2I (P34972 whole entry L182I): as the sequence (P34972 whole entry H95A) above, with A95H, L182I counted along it

With CC(C)CN1C(=O)CN(Cc2ccc(-c3ccc(F)c(CNC4CCOCC4)n3)cc2)C1=O [LEI-102, 1-(4-(5-fluoro-6-(((tetrahydro-2H-pyran-4-yl)amino)methyl)pyridin-2-yl)benzyl)-3-isobutylimidazolidine-2,4-dione] the “percentage specific [3H]CP55,940 binding” value (CB2R-Quadruple^TM1,7; log [ligand] (M) -8) was 120.94% and 110.56% and 172.31%, the “percentage specific [3H]CP55,940 binding” value (CB2R-Quadruple^TM1,7; log [ligand] (M) -9) was 139.03% and 122.04% and 167.10% and the “percentage specific [3H]CP55,940 binding” value (CB2R-Quadruple^TM1,7; log [ligand] (M) -10) was 103.18% and 81.86% and 136.81%. For the same molecule, the “G protein activation, fold over its basal” value (CB1R-H270^ECL2L; CB1R H270ECL2L, individual replicates) was 1.101 fold over its basal and 1.221 fold over its basal and 1.256 fold over its basal, the Agonist-mediated activation (CB1R-H270^ECL2L; CB1R H270L, 10 µM agonist) was 1.2 ± 0.0 fold over its basal and the EC50 (CB2R-L182^ECL2I; <5 when curve fit not finished) was 0.0398 µM. The “Emax (%)” value (CB2R-L182^ECL2I; at 10 µM compared to WT) was 11 ± 8%, the Agonist-mediated activation (CB1R QuadrupleTM1,7; CB1R Quadruple TM1,7, 10 µM agonist) was 1.2 ± 0.1 fold over its basal and the “G protein activation, fold over its basal” value (CB1R QuadrupleTM1,7; CB1R QuadrupleTM1,7, individual replicates) was 1.167 fold over its basal and 1.343 fold over its basal and 1.151 fold over its basal. The “Emax (%)” value (CB2R WT [1]; maximum effect at 10 µM compared to WT (Suppl. Table 6)) was 103 ± 3%, the “Emax (%)” value (CB2R WT [1]; maximum effect compared to CP55,940) was 76 ± 1% and the EC50 (CB2R WT [1]; [35S]GTPγS, HEK293T membranes transiently expressing CB2R WT) was 0.126 µM. For the same molecule, the “[35S]GTPγS binding, percentage of CP55,940” value (CB2R WT [1]; log [agonist] (M) -5) was 76.96% and 72.92% and 77.27%, the “[35S]GTPγS binding, percentage of CP55,940” value (CB2R WT [1]; log [agonist] (M) -6) was 47.32% and 54.96% and 57.48% and the “[35S]GTPγS binding, percentage of CP55,940” value (CB2R WT [1]; log [agonist] (M) -7) was 8.09% and 19.22% and 13.61%. The “[35S]GTPγS binding, percentage of CP55,940” value (CB2R WT [1]; log [agonist] (M) -8) was 7.23% and 9.98% and 7.81%, the “[35S]GTPγS binding, percentage of CP55,940” value (CB2R WT [1]; log [agonist] (M) -9) was -12.88% and -8.32% and -11.10% and the “[35S]GTPγS binding, percentage of CP55,940” value (CB2R WT [1]; log [agonist] (M) -10) was -4.61% and 18.64% and -19.45%. The EC50 (CB2R-E181^ECL2D; <5 when curve fit not finished) was 0.126 µM, the “Emax (%)” value (CB2R-E181^ECL2D; at 10 µM compared to WT) was 28 ± 13% and the EC50 (CB2R-I110^3.29A; [3]) was 0.1 µM. The pEC50 (CB2R-I110^3.29A; [3]) was “no significant effect”, the “Emax (%)” value (CB2R-I110^3.29A; I110A mutant, at 10 µM compared to WT) was 36 ± 13% and the “[35S]GTPγS binding” value (CB2R-I110^3.29A; log [ligand] (M) -5) was 61.30 percentage of WT and 18.20 percentage of WT and 29.13 percentage of WT. For the same molecule, the “[35S]GTPγS binding” value (CB2R-I110^3.29A; log [ligand] (M) -6) was 35.42 percentage of WT and 6.50 percentage of WT and 8.34 percentage of WT, the “[35S]GTPγS binding” value (CB2R-I110^3.29A; log [ligand] (M) -7) was 35.70 percentage of WT and -4.40 percentage of WT and 26.26 percentage of WT and the “[35S]GTPγS binding” value (CB2R-I110^3.29A; log [ligand] (M) -8) was 11.80 percentage of WT and -18.30 percentage of WT and 10.49 percentage of WT. For the same molecule, the “[35S]GTPγS binding” value (CB2R-I110^3.29A; log [ligand] (M) -9) was -6.30 percentage of WT and 0.70 percentage of WT and 0.20 percentage of WT, the “[35S]GTPγS binding” value (CB2R-I110^3.29A; log [ligand] (M) -10) was 15.50 percentage of WT and -9.30 percentage of WT and 14.53 percentage of WT and the “percentage specific [3H]CP55,940 binding” value (CB1R I267ECL2L; CB1R I267ECL2L, 10 µM ligand, replicates 1-3) was 70.66 percentage and 79.50 percentage and 75.81 percentage. For the same molecule, the “Displacement (%) of [3H]CP55,940” value (CB1R I267ECL2L; CB1R I267L, 10 µM compound) was 25 ± 3%, the pKi (CB2R-I110^3.29L; CB2R I110L mutant, [3H]CP55,940) was “remained similar” and the “percentage specific [3H]CP55,940 binding” value (CB2R-I110^3.29L; log [ligand] (M) -5) was 3.91% and 2.37% and 4.51%. For the same molecule, the “percentage specific [3H]CP55,940 binding” value (CB2R-I110^3.29L; log [ligand] (M) -6) was 9.98% and 9.21% and 3.23%, the “percentage specific [3H]CP55,940 binding” value (CB2R-I110^3.29L; log [ligand] (M) -7) was 39.17% and 30.03% and 31.46% and the “percentage specific [3H]CP55,940 binding” value (CB2R-I110^3.29L; log [ligand] (M) -8) was 86.59% and 79.23% and 85.93%. For the same molecule, the “percentage specific [3H]CP55,940 binding” value (CB2R-I110^3.29L; log [ligand] (M) -9) was 105.91% and 105.22% and 104.46%, the “percentage specific [3H]CP55,940 binding” value (CB2R-I110^3.29L; log [ligand] (M) -10) was 128.52% and 108.89% and 100.89% and the Ki (CB2R-I110^3.29L; read-out: pKi (converted)) was 0.0126 µM. The “percentage specific [3H]CP55,940 binding” value (CB2R WT [2]; log [ligand] (M) -5) was 11.20% and 5.48% and 13.91%, the “percentage specific [3H]CP55,940 binding” value (CB2R WT [2]; log [ligand] (M) -6) was 40.37% and 13.48% and 13.16% and the “percentage specific [3H]CP55,940 binding” value (CB2R WT [2]; log [ligand] (M) -7) was 87.52% and 46.85% and 48.46%. For the same molecule, the “percentage specific [3H]CP55,940 binding” value (CB2R WT [2]; log [ligand] (M) -8) was 156.63% and 87.43% and 104.52%, the “percentage specific [3H]CP55,940 binding” value (CB2R WT [2]; log [ligand] (M) -9) was 143.94% and 83.15% and 100.75% and the “percentage specific [3H]CP55,940 binding” value (CB2R WT [2]; log [ligand] (M) -10) was 162.62% and 107.24% and 130.29%. For the same molecule, the Ki (CB2R WT [2]; read-out: pKi (converted)) was 0.0316 µM, the EC50 (CB2R-H95^2.65A; <5 when curve fit not finished) was greater than 10 µM and the pEC50 (CB2R-H95^2.65A; <5 when curve fit not finished) was “significantly reduced”. The “Emax (%)” value (CB2R-H95^2.65A; at 10 µM compared to WT) was 64 ± 7%.
